Measurements reported in ChEMBL document CHEMBL5360646, “Optimization of M3 Antagonist-PDE4 Inhibitor (MAPI) Dual Pharmacology Molecules for the Treatment of COPD” (J Med Chem, 2023).

Key:
[1] = target: Muscarinic acetylcholine receptor M3 (Homo sapiens, UniProt P20309); assay: Displacement of [3H]N-methylscopolamine chloride from human muscarinic M3 receptor incubated for 2 hrs by radioligand binding assay
[2] = target: 3',5'-cyclic-AMP phosphodiesterase 4B (Homo sapiens, UniProt Q07343); assay: Inhibition of human recombinant PDE4B2 expressed in baculovirus expression system using cAMP as substrate incubated for 2 hrs by HTRF assay
[3] = Metabolic stability in rat liver microsomes assessed as intrinsic clerance at 1 uM and measured upto 60 mins by HPLC-MS/MS analysis; format: ADME, Microsome; conditions: microsomes, 1 h, 1 µM
Rattus norvegicus [4] = assay: Anti-bronchospastic activity in carbachol-induced bronchospasm Sprague-Dawley rat model assessed as inhibition of carbachol-induced bronchoconstriction at 30 nmol/kg, IT(Intratracheal) administered 16 hr prior to carbachol challenge; format: functional; parameters: scale not given: the % may be the effect or the level left
Rattus norvegicus [5] = assay: Anti-bronchospastic activity in carbachol-induced bronchospasm Sprague-Dawley rat model assessed as inhibition of carbachol-induced bronchoconstriction at 30 nmol/kg, IT(Intratracheal) administered 1 hr prior to carbachol challenge; format: functional; parameters: scale not given: the % may be the effect or the level left
Trachea = assay: Bronchoconstriction activity in Sprague-Dawley rat trachea assessed as inhibition of carbachol-induced tracheal contraction; format: functional, tissue-based
[6] = Antiinflammatory activity against LPS-stimulated human PBMC cells assessed reduction in TNFalpha level incubated for 18 hrs by ELISA analysis; format: functional, cell-based; conditions: for IC50: Homo sapiens, PBMC, 18 h; for pIC50: pbmc
[7] = Metabolic stability in human liver microsomes assessed as intrinsic clerance at 1 uM and measured upto 60 mins by HPLC-MS/MS analysis; format: ADME, Microsome
[8] = Metabolic stability in human plasma assessed as half life at 5 uM and measured upto 180 mins by HPLC-MS/MS analysis; format: ADME, cell-free
[9] = Metabolic stability in rat lung S9 fraction assessed as half life at 1 uM and measured upto 60 mins in presence of NADPH by LC-MS/MS analysis; format: ADME, subcellular
Rattus norvegicus [10] = assay: Anti-bronchospastic activity in carbachol-induced bronchospasm Sprague-Dawley rat model assessed as inhibition of carbachol-induced bronchoconstriction administered IT(Intratracheal) for 1 hr prior to carbachol challenge; format: functional
[11] = Metabolic stability in rat plasma assessed as half life at 5 uM and measured upto 180 mins by HPLC-MS/MS analysis; format: ADME, cell-free
[12] = Metabolic stability in human lung S9 fraction assessed as half life at 1 uM and measured upto 60 mins in presence of NADPH by LC-MS/MS analysis; format: ADME, subcellular
Rattus norvegicus [13] = assay: Anti-inflammatory activity against OVA-sensitized Brown-Norway rat airway inflammation model assessed as inhibition of OVA-induced eosinophil influx administered IT(Intratracheal) 2 hrs prior to OVA challenge; format: functional
Rattus norvegicus [14] = assay: Anti-bronchospastic activity in carbachol-induced bronchospasm Sprague-Dawley rat model assessed as inhibition of carbachol-induced bronchoconstriction at 10 nmol/kg, IT(Intratracheal) administered 16 hr prior to carbachol challenge; format: functional; parameters: scale not given: the % may be the effect or the level left
[15] = Ratio of ED50 for Anti-inflammatory activity against OVA-sensitized Brown-Norway rat airway inflammation model to ED50 for Anti-bronchospastic activity in carbachol-induced bronchospasm Sprague-Dawley rat model; format: functional
Rattus norvegicus [16] = assay: Anti-bronchospastic activity in carbachol-induced bronchospasm Sprague-Dawley rat model assessed as inhibition of carbachol-induced bronchoconstriction at 10 nmol/kg, IT(Intratracheal) administered 1 hr prior to carbachol challenge; format: functional; parameters: scale not given: the % may be the effect or the level left
Rattus norvegicus [17] = assay: Anti-inflammatory activity against OVA-sensitized Brown-Norway rat airway inflammation model assessed as inhibition of OVA-induced eosinophil influx at 1000 nmol/kg,IT(Intratracheal) pretreated 24 hrs prior to OVA challenge and measured after 48 hrs by automated cell counter analysis; format: functional; parameters: scale not given: the % may be the effect or the level left; conditions: time 72 hrs
Rattus norvegicus [18] = assay: Anti-inflammatory activity against OVA-sensitized Brown-Norway rat airway inflammation model assessed as inhibition of OVA-induced eosinophil influx at 100 nmol/kg,IT(Intratracheal) pretreated 2 hrs prior to OVA challenge by automated cell counter analysis; format: functional; parameters: scale not given: the % may be the effect or the level left
[19] = Toxicity in ferret assessed as appearance of nausea-like behavior at 10 nmol/kg,po and measured for 4 hrs by behavioral analysis; parameters: species or system Mustela putorius furo; conditions: in vivo
[20] = Toxicity in ferret assessed as appearance of nausea-like behavior at 10 nmol/kg, IT(Intratracheal) and measured for 4 hrs by behavioral analysis; parameters: species or system Mustela putorius furo; conditions: in vivo, inhaled_or_intranasal
[21] = Toxicity in ferret assessed as emetic response at 10 nmol/kg,po and measured for 4 hrs by behavioral analysis; parameters: species or system Mustela putorius furo; conditions: in vivo
[22] = Toxicity in ferret assessed as emetic response at 10 nmol/kg, IT(Intratracheal) and measured for 4 hrs by behavioral analysis; parameters: species or system Mustela putorius furo; conditions: in vivo, inhaled_or_intranasal
[23] = Toxicity in pilocarpine hydrochloride induced salivation Sprague-Dawley rat model assessed as inhibition of salivary secretion at 3 mM,INH for 10 mins; conditions: Sprague-Dawley, in vivo, inhaled or intranasal, read-out: Activity

Chain of Muscarinic acetylcholine receptor M3 (P20309 whole entry): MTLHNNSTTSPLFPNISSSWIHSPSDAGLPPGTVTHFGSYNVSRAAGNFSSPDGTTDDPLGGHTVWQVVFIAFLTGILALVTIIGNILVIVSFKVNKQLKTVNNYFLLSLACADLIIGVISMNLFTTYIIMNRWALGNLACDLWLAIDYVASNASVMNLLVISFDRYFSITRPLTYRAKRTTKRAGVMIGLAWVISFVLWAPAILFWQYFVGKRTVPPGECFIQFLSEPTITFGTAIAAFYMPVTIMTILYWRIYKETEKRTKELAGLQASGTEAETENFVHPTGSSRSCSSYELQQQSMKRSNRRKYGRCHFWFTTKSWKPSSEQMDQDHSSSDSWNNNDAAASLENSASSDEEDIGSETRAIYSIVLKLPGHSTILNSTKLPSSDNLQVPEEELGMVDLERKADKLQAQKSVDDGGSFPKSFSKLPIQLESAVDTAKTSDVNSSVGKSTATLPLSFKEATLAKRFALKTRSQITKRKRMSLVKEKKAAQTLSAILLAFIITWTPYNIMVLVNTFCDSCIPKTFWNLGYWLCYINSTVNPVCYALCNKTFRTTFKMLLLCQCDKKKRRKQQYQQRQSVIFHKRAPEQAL
Chain of 3',5'-cyclic-AMP phosphodiesterase 4B (Q07343 whole entry): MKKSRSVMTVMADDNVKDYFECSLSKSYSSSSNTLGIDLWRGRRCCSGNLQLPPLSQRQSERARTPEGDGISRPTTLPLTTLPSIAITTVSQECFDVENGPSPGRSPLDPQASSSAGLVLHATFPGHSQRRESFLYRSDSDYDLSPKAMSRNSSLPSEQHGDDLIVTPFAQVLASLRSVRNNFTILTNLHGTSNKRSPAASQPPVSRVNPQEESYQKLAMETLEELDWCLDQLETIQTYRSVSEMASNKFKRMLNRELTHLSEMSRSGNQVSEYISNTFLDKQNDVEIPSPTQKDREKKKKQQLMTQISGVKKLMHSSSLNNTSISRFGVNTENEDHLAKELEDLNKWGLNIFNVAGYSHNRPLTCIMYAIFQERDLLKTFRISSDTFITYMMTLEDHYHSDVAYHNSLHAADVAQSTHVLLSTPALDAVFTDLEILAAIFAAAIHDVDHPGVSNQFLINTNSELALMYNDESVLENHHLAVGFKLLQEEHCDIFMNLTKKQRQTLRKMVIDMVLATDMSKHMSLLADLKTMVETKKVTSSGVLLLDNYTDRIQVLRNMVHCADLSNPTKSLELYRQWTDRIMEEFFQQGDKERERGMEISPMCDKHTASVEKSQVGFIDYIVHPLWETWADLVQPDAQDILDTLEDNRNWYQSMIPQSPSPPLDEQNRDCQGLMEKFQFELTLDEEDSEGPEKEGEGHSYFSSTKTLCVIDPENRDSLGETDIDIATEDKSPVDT

Question: For `CCC(NCc1ccc(C(=O)O[C@@H](Cc2c(Cl)c[n+]([O-])cc2Cl)c2ccc(OC)c(OC)c2)s1)(C(=O)O[C@H]1CN2CCC1CC2)c1ccccc1` (stereo in doubt; 2s), which Ki [1] is on record?
Answer: 3.98 nM

Question: What about the IC50 [2] of the same compound?
Answer: 3.16 nM

Question: With `COc1ccc([C@H](Cc2c(Cl)c[n+]([O-])cc2Cl)OC(=O)c2ccc(CNC(CO)(C(=O)O[C@H]3CN4CCC3CC4)c3ccccc3)s2)cc1OC` (stereo in doubt; 3f) as the compound, how does the CLH [3] read?
Answer: 32 µL/min/mg

Question: And the Activity (Rattus norvegicus [4])?
Answer: 28%

Question: And the Activity (Rattus norvegicus [5])?
Answer: 88%

Question: What about the pIC50 (Trachea) of the same compound?
Answer: 7.4

Question: What about the IC50 [6] of the same compound?
Answer: 0.501 nM

Question: And the microsomal CLint at 1 µM ([7]; liver microsomes, read-out: CLH)?
Answer: 331 µL/min/mg

Question: What about the half-life at 5 µM [8] of the same compound?
Answer: > 4 h

Question: And the half-life at 1 µM ([9]; lung S9 fraction)?
Answer: 1.37 h

Question: What about the Ki [1] of the same compound?
Answer: 0.631 nM

Question: And the ED50 (Rattus norvegicus [10])?
Answer: 2.9 nmol/kg

Question: And the IC50 [2]?
Answer: 0.631 nM

Question: What about the half-life at 5 µM [11] of the same compound?
Answer: 2.1 h

Question: What about the half-life at 1 µM ([12]; lung S9 fraction) of the same compound?
Answer: 1.32 h

Question: Which results are given for `COc1ccc([C@H](Cc2c(Cl)c[n+]([O-])cc2Cl)OC(=O)c2ccc(CNC(CO)(C(=O)O[C@H]3CN4CCC3CC4)c3ccccc3)s2)cc1OC` (stereo in doubt; 3s)?
Answer: CLH [3]: 189 µL/min/mg; ED50 (Rattus norvegicus [13]): 0.016 µmol/kg; pIC50 (Trachea): 8.4; Activity (Rattus norvegicus [14]): 82%; pIC50 [6]: 9.2; CLH ([7]; microsomes, 1 h, 1 µM): 196 µL/min/mg; t1/2 ([9]; s9, 1 h, 1 µM, 1 h): 1.38 h; Ratio ED50 [15]: 20; Ki [1]: 0.2 nM; ED50 (Rattus norvegicus [10]): 0.8 nmol/kg; IC50 [2]: 0.501 nM; t1/2 ([11]; 3 h, 5 µM): 1.95 h; Activity (Rattus norvegicus [16]): 81%; t1/2 ([12]; s9, 1 h, 1 µM, 1 h): 1.3 h

Question: For `COCC(NCc1ccc(C(=O)O[C@@H](Cc2c(Cl)c[n+]([O-])cc2Cl)c2ccc(OC)c(OC)c2)s1)(C(=O)O[C@H]1CN2CCC1CC2)c1ccccc1` (stereo in doubt; 4f), which Ki [1] is on record?
Answer: 3.16 nM

Question: And the IC50 [2]?
Answer: 1 nM

Question: For `COCC(NCc1ccc(C(=O)O[C@@H](Cc2c(Cl)c[n+]([O-])cc2Cl)c2ccc(OC)c(OC)c2)s1)(C(=O)O[C@H]1CN2CCC1CC2)c1ccccc1` (stereo in doubt; 4s), which Ki [1] is on record?
Answer: 5.01 nM

Question: What about the IC50 [2] of the same compound?
Answer: 1.58 nM

Question: For `COc1ccc([C@H](Cc2c(Cl)c[n+]([O-])cc2Cl)OC(=O)c2ccc(CNC(CO)(C(=O)O[C@H]3CN4CCC3CC4)c3ccccc3)c(OCC3CC3)c2)cc1OC` (stereo in doubt; 9f), which Ki [1] is on record?
Answer: 31.6 nM

Question: What about the IC50 [2] of the same compound?
Answer: 0.501 nM

Question: Which Ki [1] does the source give for `COc1ccc([C@H](Cc2c(Cl)c[n+]([O-])cc2Cl)OC(=O)c2ccc(CNC(CO)(C(=O)O[C@H]3CN4CCC3CC4)c3ccccc3)c(OCC3CC3)c2)cc1OC` (stereo in doubt; 9s) here?
Answer: > 50.1 nM

Question: And the IC50 [2]?
Answer: 0.794 nM

Question: For `COc1ccc([C@H](Cc2c(Cl)c[n+]([O-])cc2Cl)OC(=O)c2ccc(CNC(CO)(C(=O)O[C@H]3CN4CCC3CC4)c3ccccc3)s2)cc1OCC1CC1` (stereo in doubt; 11f), which Activity (Rattus norvegicus [5]) is on record?
Answer: 80%

Question: What about the pIC50 (Trachea) of the same compound?
Answer: 7

Question: And the IC50 [6]?
Answer: 1.58 nM

Question: What about the Ki [1] of the same compound?
Answer: 0.398 nM

Question: What about the ED50 (Rattus norvegicus [10]; Rattus norvegicus, Sprague-Dawley, read-out: ED50) of the same compound?
Answer: 7.9 nmol/kg

Question: And the IC50 [2]?
Answer: 0.794 nM

Question: Which pIC50 (Trachea) does the source give for `COc1ccc([C@H](Cc2c(Cl)c[n+]([O-])cc2Cl)OC(=O)c2ccc(CNC(CO)(C(=O)O[C@H]3CN4CCC3CC4)c3ccccc3)s2)cc1OCC1CC1` (stereo in doubt; 11s) here?
Answer: 7.8

Question: And the pIC50 [6]?
Answer: 8.5

Question: What about the Ki [1] of the same compound?
Answer: 0.251 nM

Question: And the IC50 [2]?
Answer: 1.26 nM

Question: For `C[C@@H]1C[C@H]2[C@@H]3C[C@H](F)C4=CC(=O)C=C[C@]4(C)[C@@]3(F)[C@@H](O)C[C@]2(C)[C@@]1(OC(=O)c1ccco1)C(=O)SCF` [FLUTICASONE FUROATE], which Activity (Rattus norvegicus [17]) is on record?
Answer: >100%

Question: And the Activity (Rattus norvegicus [18])?
Answer: >100%

Question: Which Activity [19] does the source give for `O=C(Nc1c(Cl)cncc1Cl)c1ccc(OC(F)F)c(OCC2CC2)c1` [ROFLUMILAST] here?
Answer: Toxic

Question: What about the Activity [20] of the same compound?
Answer: Toxic

Question: What about the Activity [21] of the same compound?
Answer: Toxic

Question: What about the Activity [22] of the same compound?
Answer: Toxic

Question: Which inhibition at 10 min, 3000 µM [23] does the source give for `C[N+]1(C)[C@@H]2C[C@@H](OC(=O)C(O)(c3cccs3)c3cccs3)C[C@H]1[C@@H]1O[C@@H]12` [TIOTROPIUM] here?
Answer: 62%
